In ChEMBL document CHEMBL1201862, “PubChem BioAssay data set” (2004):
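These data come from cells grown in 96-well plates and exposed to compound for 48 hours at five concentrations. Abbreviation: GI50, concentration required for 50% inhibition of growth.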 Calls of active or inactive are those of the source. Rule as the data show it: active = GI50 up to about 1.1 µM and inactive = higher.

Tests used:
Test in all cases: NCI tumour cell line growth inhibition, 48 h
RXF 393 = test system: RXF 393
OVCAR-5 = test system: OVCAR-5
CAKI-1 = test system: CAKI-1
SF-539 = test system: SF-539
SR = test system: SR
SF-268 = test system: SF-268
TK-10 = test system: TK-10
NCI-H23 = test system: NCI-H23
U-251 = test system: U-251
SK-OV-3 = test system: SK-OV-3
SF-295 = test system: SF-295
HOP-92 = test system: HOP-92
SK-MEL-5 = test system: SK-MEL-5
IGROV-1 = test system: IGROV-1
MOLT-4 = test system: MOLT-4
NCI-H226 = test system: NCI-H226
HCT-116 = test system: HCT-116

Measured: GI50

CC1=NN(C(=O)CC(=O)Nc2cccc(Cl)c2)C(=O)C1/N=N/c1ccc(S(N)(=O)=O)cc1 (configuration not stated)
inactive: RXF 393 > 100 µM | OVCAR-5 > 100 µM | CAKI-1 > 100 µM | SF-539 > 100 µM | SR > 100 µM | SF-268 > 100 µM | TK-10 > 100 µM | NCI-H23 > 100 µM | U-251 > 100 µM | SK-OV-3 > 100 µM | SF-295 > 100 µM | HOP-92 > 100 µM | SK-MEL-5 > 100 µM | IGROV-1 > 100 µM | MOLT-4 > 100 µM | NCI-H226 > 100 µM | HCT-116 > 100 µM

COc1ccc(-c2c(C3=NCCN3)nnn2-c2ccccc2)cc1
inactive: RXF 393 > 100 µM | OVCAR-5 > 100 µM | CAKI-1 > 100 µM | SF-539 > 100 µM | SR 89.9 µM | SF-268 > 100 µM | TK-10 > 100 µM | NCI-H23 > 100 µM | U-251 > 100 µM | SK-OV-3 > 100 µM | SF-295 > 100 µM | HOP-92 > 100 µM | SK-MEL-5 > 100 µM | IGROV-1 > 100 µM | MOLT-4 > 100 µM | NCI-H226 > 100 µM | HCT-116 99.1 µM

CCOc1ccccc1/N=N/c1c(-c2ccccc2)nn(C(=O)CC(=O)Nc2cccc(C)c2)c1-c1ccccc1
inactive: RXF 393 > 100 µM | OVCAR-5 > 100 µM | CAKI-1 > 100 µM | SF-539 > 100 µM | SR > 100 µM | SF-268 74.8 µM | TK-10 > 100 µM | NCI-H23 > 100 µM | U-251 > 100 µM | SK-OV-3 > 100 µM | SF-295 > 100 µM | HOP-92 > 100 µM | SK-MEL-5 > 100 µM | IGROV-1 > 100 µM | MOLT-4 > 100 µM | NCI-H226 > 100 µM | HCT-116 > 100 µM

CC(C)(Oc1ccc(/C=C/C(=O)c2ccccc2)cc1)C(=O)Nc1c(Cl)cccc1Cl
inactive: RXF 393 > 10 µM | OVCAR-5 > 10 µM | CAKI-1 > 10 µM | SF-539 > 10 µM | SR 3.48 µM | SF-268 > 10 µM | TK-10 > 10 µM | NCI-H23 7.33 µM | U-251 7.14 µM | SK-OV-3 > 10 µM | SF-295 > 10 µM | HOP-92 > 10 µM | SK-MEL-5 > 10 µM | IGROV-1 > 10 µM | MOLT-4 > 10 µM | NCI-H226 > 10 µM | HCT-116 > 10 µM

CSC1=Nc2ccccc2N=C(c2ccccc2)C1
inactive: RXF 393 20.4 µM | OVCAR-5 67.1 µM | CAKI-1 75.2 µM | SF-539 > 100 µM | SR 24 µM | SF-268 > 100 µM | TK-10 80 µM | NCI-H23 50.2 µM | U-251 > 100 µM | SK-OV-3 > 100 µM | SF-295 > 100 µM | HOP-92 20.2 µM | SK-MEL-5 44.5 µM | IGROV-1 > 100 µM | MOLT-4 27.9 µM | NCI-H226 > 100 µM | HCT-116 24.6 µM

CC(C)C(NCc1c2ccccc2nc2ccccc12)C(=O)O (configuration not stated)
inactive: RXF 393 24.5 µM | OVCAR-5 > 100 µM | CAKI-1 28.6 µM | SF-539 45.3 µM | SR 20.6 µM | SF-268 36.7 µM | TK-10 > 100 µM | NCI-H23 41.8 µM | U-251 91.8 µM | SK-OV-3 > 100 µM | SF-295 81.5 µM | HOP-92 12.4 µM | SK-MEL-5 64.4 µM | IGROV-1 27.4 µM | MOLT-4 15.2 µM | NCI-H226 > 100 µM | HCT-116 26.4 µM
